What follows are compounds tested against T1, GLUT1 (Homo sapiens, UniProt P11166) (assay: Indirect measurement of GLUT1 activity by quantification of intracellular ATP levels (glucose induced ATP increase)). Settings: DLD1 cells; 0.1 mM glucose, 1 μM Rotenone, 15 min; CellTiter-Glo ATP readout; IC50 values standardized to cytochalasin B IC50 values; read-out: IC50 regarding glucose induced ATP increase (GLUT1 inhibition).
T1 sequence (P11166 1-492): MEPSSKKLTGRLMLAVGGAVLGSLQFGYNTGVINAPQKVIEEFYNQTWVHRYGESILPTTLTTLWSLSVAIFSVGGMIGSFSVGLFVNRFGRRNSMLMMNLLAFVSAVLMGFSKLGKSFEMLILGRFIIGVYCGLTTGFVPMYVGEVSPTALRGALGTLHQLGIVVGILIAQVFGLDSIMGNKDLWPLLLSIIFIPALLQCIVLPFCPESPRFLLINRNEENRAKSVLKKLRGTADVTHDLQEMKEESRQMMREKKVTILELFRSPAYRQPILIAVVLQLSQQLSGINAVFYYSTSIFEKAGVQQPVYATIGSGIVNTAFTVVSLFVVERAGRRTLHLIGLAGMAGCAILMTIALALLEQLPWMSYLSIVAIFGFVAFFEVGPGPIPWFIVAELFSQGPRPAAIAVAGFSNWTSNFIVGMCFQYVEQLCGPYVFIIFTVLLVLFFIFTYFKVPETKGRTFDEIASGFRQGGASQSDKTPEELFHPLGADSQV
Format: cell-based
Parameters: endogenous in cells; host or cells: DLD1 or CHO-K1
Outline: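 Intracellular ATP was measured by CellTiter-Glo luminescence as an indirect readout of transport: glucose-driven for GLUT1, fructose-driven for GLUT2. DLD1 or CHO-K1 cells were used alongside an oxidative phosphorylation inhibitor. Beforehand, cells were held overnight in glucose-free 1% FCS medium to deplete ATP.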

| Structure (SMILES) | IC50 |
| --- | --- |
| Cc1c(NC(=O)c2cc(C(N)=O)nc3cc(F)cc(F)c23)c(C(F)(F)F)nn1Cc1ccc(C#N)cc1 [Example 243, N^4-[1-(4-cyanobenzyl)-5-methyl-3-(trifluoromethyl)-1H-pyrazol-4-yl]-5,7-difluoroquinoline-2,4-dicarboxamide] | 0.0005 µM |
| Cc1nn(CCc2ccc(F)cc2)c(C)c1NC(=O)c1cc(C(F)(F)F)nc2ccc(Br)cc12 [Example 1129] | 0.0866 µM |

Same assay, conditions: read-out: IC50 regarding glucose induced ATP increase (GLUT1 inhibition)

| Structure (SMILES) | IC50 |
| --- | --- |
| COc1ccc(Cn2nc(C(F)(F)F)c(NC(=O)c3cc(C(F)(F)F)nc4ccc(Br)cc34)c2C)cc1 [Example 1035] | 0.005 µM |
| COc1cc(C(=O)Nc2c(C)nn(Cc3ccc(S(C)(=O)=O)cc3)c2C)c2ccccc2n1 [Example 1052] | 0.0131 µM |
| Cc1nn(Cc2ccc(C(=O)NCC(C)(C)O)cc2)c(C)c1NC(=O)c1cc(C(F)(F)F)nc2ccc(Br)cc12 [Example 1085] | 0.0312 µM |
| Cc1nn(Cc2ccc(C(=O)NCCCO)cn2)c(C)c1NC(=O)c1cc(C(F)(F)F)nc2ccc(Br)cc12 [Example 1131] | 0.0867 µM |
| Cc1nn(Cc2cc(C(C)C)no2)c(C)c1NC(=O)c1cc(C(N)=O)nc2ccccc12 [Example 1562] | 0.0559 µM |
| COc1cc(C(=O)Nc2c(C(F)(F)F)nn(Cc3ccncc3)c2C)c2ccccc2n1 [Example 1366] | 0.0381 µM |
| Cc1nn(Cc2ccccc2C(F)(F)F)c(C)c1NC(=O)c1cc(C(F)(F)F)nc2c(Cl)cc(Cl)cc12 [Example 1299] | 11.1 µM |
| Cc1ccc2nc(C)cc(C(=O)Nc3c(C)nn(Cc4cccnc4)c3C)c2c1 [Example 208, N-[3,5-dimethyl-1-(pyridin-3-ylmethyl)-1H-pyrazol-4-yl]-2,6-dimethylquinoline-4-carboxamide] | 0.741 µM |
| Cc1c(NC(=O)c2cc(C(N)=O)nc3cc(F)ccc23)c(C(F)(F)F)nn1Cc1ncco1 [Example 1529] | 0.402 µM |
| Cc1c(NC(=O)c2cc(C(N)=O)nc3cc(F)c(Cl)cc23)c(C(F)(F)F)nn1Cc1ccc(C#N)cc1F [Example 303, 6-chloro-N^4-[1-(4-cyano-2-fluorobenzyl)-5-methyl-3-(trifluoromethyl)-1H-pyrazol-4-yl]-7-fluoroquinoline-2,4-dicarboxamide] | 0.0018 µM |
| Cc1c(NC(=O)c2cc(C(F)(F)F)nc3ccc(Br)cc23)c(C(=O)N(C)C)nn1Cc1ccc(F)cc1 [Example 1259] | 2.1 µM |
| Cc1nn(Cc2ccc(F)cc2C#N)c(C)c1NC(=O)c1cc(C(N)=O)nc2ccccc12 [Example 1661] | 0.0034 µM |
| Cc1nonc1Cn1nc(C)c(NC(=O)c2cc(C(N)=O)nc3ccccc23)c1C [Example 1515] | 0.319 µM |
| COc1ccc2nc(C3CC3)cc(C(=O)Nc3c(C)nn(Cc4ccc(F)cc4)c3C)c2c1 [Example 233, 2-cyclopropyl-N-[1-(4-fluorobenzyl)-3,5-dimethyl-1H-pyrazol-4-yl]-6-methoxyquinoline-4-carboxamide] | 0.0072 µM |
| CSc1cc(C(=O)Nc2c(C)nn(Cc3ccc(C#N)cc3)c2C)c2ccccc2n1 [Example 381, N-[1-(4-cyanobenzyl)-3,5-dimethyl-1H-pyrazol-4-yl]-2-(methylsulfanyl)quinoline-4-carboxamide] | 0.009 µM |
| Cc1c(NC(=O)c2cc(C(N)=O)nc3cc(F)ccc23)c(C(F)(F)F)nn1Cc1nc2ccccc2o1 [Example 1678] | 0.0577 µM |
| Cc1nn(Cc2ccccc2C#N)c(C)c1NC(=O)c1cc(C(N)=O)nc2cc(F)ccc12 [Example 266, N^4-[1-(2-cyanobenzyl)-3,5-dimethyl-1H-pyrazol-4-yl]-7-fluoroquinoline-2,4-dicarboxamide] | 0.001 µM |
| Cc1c(NC(=O)c2cc(C(N)=O)nc3cccc(F)c23)c(C(F)(F)F)nn1Cc1cc(F)ccc1C#N [Example 1654] | 0.221 µM |
| Cc1nn(Cc2ccc(C(=O)O)cn2)c(C)c1NC(=O)c1cc(C(N)=O)nc2ccc(F)cc12 [Example 1275] | 3.5 µM |
| COc1ccc(Cn2nc(C)c(NC(=O)c3cc(C(N)=O)nc4ccc(F)cc34)c2C)cc1 [Example 227, 6-fluoro-N^4-[1-(4-methoxybenzyl)-3,5-dimethyl-1H-pyrazol-4-yl]quinoline-2,4-dicarboxamide] | 0.0046 µM |
| Cc1nn(Cc2ccc(C(=O)NCc3cccnc3)cc2)c(C)c1NC(=O)c1cc(C(F)(F)F)nc2ccc(Br)cc12 [Example 138, 6-bromo-N-(3,5-dimethyl-1-{4-[(pyridin-3-ylmethyl)carbamoyl]benzyl}-1H-pyrazol-4-yl)-2-(trifluoromethyl)quinoline-4-carboxamide] | 0.0181 µM |
| CC(=O)c1ccc(Cn2nc(C)c(NC(=O)c3cc(C(N)=O)nc4ccccc34)c2C)cc1 [Example 1607] | 0.0035 µM |

The next lines start with the values.

| IC50 | Structure (SMILES) |
| --- | --- |
| 0.749 µM | Cc1nn(Cc2ccc(C(=O)N(C)C)cn2)c(C)c1NC(=O)c1cc(C(F)(F)F)nc2ccc(Br)cc12 [Example 1221] |
| 0.667 µM | Cc1ccc2nc(C)cc(C(=O)Nc3c(C)nn(CC4CCCCC4)c3C)c2c1 [Example 206, N-[1-(cyclohexylmethyl)-3,5-dimethyl-1H-pyrazol-4-yl]-2,6-dimethylquinoline-4-carboxamide] |
| 0.354 µM | Cc1nn(Cc2ccc(C(=O)NCCO)cc2)c(C)c1NC(=O)c1cc(C(N)=O)nc2cc(F)ccc12 [Example 1420] |
| 0.146 µM | Cc1c(NC(=O)c2cc(S(C)(=N)=O)nc3ccccc23)c(C(F)(F)F)nn1Cc1ccc(C#N)cc1 (racemic) [Example 387, (±)-N-[1-(4-cyanobenzyl)-5-methyl-3-(trifluoromethyl)-1H-pyrazol-4-yl]-2-(S-methylsulfonimidoyl)quinoline-4-carboxamide] |
| 0.0739 µM | Cc1nn(Cc2ccc(F)c(F)c2)c(C)c1NC(=O)c1cc(C(F)(F)F)nc2cc(F)c(F)cc12 [Example 177, N-[1-(3,4-difluorobenzyl)-3,5-dimethyl-1H-pyrazol-4-yl]-6,7-difluoro-2-(trifluoromethyl)quinoline-4-carboxamide] |
| 0.0417 µM | CCc1cc(Cn2nc(C(F)(F)F)c(NC(=O)c3cc(C(N)=O)nc4cc(F)ccc34)c2C)on1 [Example 1556] |
| 0.0393 µM | Cc1nn(CC2CCN(S(C)(=O)=O)CC2)c(C)c1NC(=O)c1cc(C(N)=O)nc2ccccc12 [Example 1094] |
| 0.0139 µM | COCCN(CCC#N)C(=O)c1ccc(Cn2nc(C)c(NC(=O)c3cc(C(F)(F)F)nc4ccc(Br)cc34)c2C)cc1 [Example 1054] |
| 0.0077 µM | Cc1nn(Cc2ccc(F)cc2)c(C)c1NC(=O)c1cc(C2CC2)nc2ccc(Br)cc12 [Example 12, 6-bromo-2-cyclopropyl-N-[1-(4-fluorobenzyl)-3,5-dimethyl-1H-pyrazol-4-yl]quinoline-4-carboxamide] |
| 0.0072 µM | Cc1c(NC(=O)c2cc(C(N)=O)nc3ccc(N4CCCCC4)cc23)c(C(F)(F)F)nn1Cc1ccc(C#N)cc1 [Example 345, N^4-[1-(4-cyanobenzyl)-5-methyl-3-(trifluoromethyl)-1H-pyrazol-4-yl]-6-(piperidin-1-yl)quinoline-2,4-dicarboxamide] |
| 0.0046 µM | Cc1nn(Cc2ccc(F)cc2)c(C)c1NC(=O)c1cc(C(N)=O)nc2ccc(F)cc12 [Example 229, 6-fluoro-N^4-[1-(4-fluorobenzyl)-3,5-dimethyl-1H-pyrazol-4-yl]quinoline-2,4-dicarboxamide] |
| 0.0027 µM | Cc1c(NC(=O)c2cc(C(N)=O)nc3ccccc23)c(C#N)nn1Cc1ccc(F)cc1 [Example 308, N^4-[3-cyano-1-(4-fluorobenzyl)-5-methyl-1H-pyrazol-4-yl]quinoline-2,4-dicarboxamide] |

Source: patent publication US20170037028A1 (BAYER PHARMA AKTIENGESELLSCHAFT, priority 2013, published 2017)
